Experimental data as given in patent publication US12157755B2, “CD73 inhibitor, preparation method therefor and application thereof” (Abbisko Therapeutics Co., Ltd., priority 2019, dated 2024).
pIC50: −log10 of the molar value.

How the values were obtained:
CD73 = target: T1, CD73 (Homo sapiens, UniProt P21589); assay: In vitro enzymatic activity against CD73 (malachite green test using soluble CD73); assay type: biochemical; settings: soluble CD73 36 ng/mL, 50 μM AMP, 30 minutes at 25° C.
T1 construct: purchased R&D systems 5795-EN-010
T1 sequence (P21589 27-547 limits assumed): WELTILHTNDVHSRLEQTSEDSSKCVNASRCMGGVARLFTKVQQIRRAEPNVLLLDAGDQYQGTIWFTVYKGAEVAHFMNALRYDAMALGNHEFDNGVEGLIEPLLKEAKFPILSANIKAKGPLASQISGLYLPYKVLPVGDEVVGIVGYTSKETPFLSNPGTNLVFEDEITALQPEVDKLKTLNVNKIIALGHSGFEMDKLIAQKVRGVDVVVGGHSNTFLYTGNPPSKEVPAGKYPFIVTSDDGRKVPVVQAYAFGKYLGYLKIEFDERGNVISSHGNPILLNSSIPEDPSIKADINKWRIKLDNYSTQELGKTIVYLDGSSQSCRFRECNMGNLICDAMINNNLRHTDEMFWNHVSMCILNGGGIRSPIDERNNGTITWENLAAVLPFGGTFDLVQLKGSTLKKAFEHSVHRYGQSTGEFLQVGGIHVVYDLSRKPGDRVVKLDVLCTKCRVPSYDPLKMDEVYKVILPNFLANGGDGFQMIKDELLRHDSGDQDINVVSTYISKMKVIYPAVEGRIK
Description: The malachite green test using soluble CD73, which is synthesized in vitro was used in the present invention to determine the characteristics of inhibitory activity of the compounds against CD73. The specific experimental procedures were as following:
1. The enzyme reaction in this experiment was carried out in 384-well plates, and CD73 (R&D systems #5795-EN-010) at a concentration of 36 ng/mL, the compounds at different concentrations and 50 μM AMP were incubated for 30 minutes at 25° C. in a 40 uL reaction system (consisting of 25 mM Tris pH 7.5, 5 mM MgCl2, and 0.005% Tween-20);
2. Then, 10 μL of malachite green solution (Sigma) was added to each well to terminate the reaction;
3. The concentration of resulting inorganic phosphate was determined according to the instructions of the reagent manufacturer;
4. The enzymatic activity of CD73 was calculated based on the concentration of the product, and then IC50 values were determined by non-linear regression analysis of the inhibition percentage of the compounds of the present invention at different concentrations.

[1] = target: T2, CD73 enzymatic activity expressed on the cell surface of MDA-MB-231 cells (Homo sapiens, UniProt P21589); assay: Inhibition of CD73 enzymatic activity on the cell surface (Cell Titer Glo (CTG) experiment), MDA-MB-231 cells; assay type: cell-based; settings: MDA-MB-231 cells endogenously expressing CD73, AMP, 37° C. for 2 hours, CTG readout; read-out: Cellular activity IC50
T2 construct: Human breast cancer cells MDA-MB-231 that endogenously express CD73 were used; host or cells: MDA-MB-231
T2 sequence (P21589 27-549): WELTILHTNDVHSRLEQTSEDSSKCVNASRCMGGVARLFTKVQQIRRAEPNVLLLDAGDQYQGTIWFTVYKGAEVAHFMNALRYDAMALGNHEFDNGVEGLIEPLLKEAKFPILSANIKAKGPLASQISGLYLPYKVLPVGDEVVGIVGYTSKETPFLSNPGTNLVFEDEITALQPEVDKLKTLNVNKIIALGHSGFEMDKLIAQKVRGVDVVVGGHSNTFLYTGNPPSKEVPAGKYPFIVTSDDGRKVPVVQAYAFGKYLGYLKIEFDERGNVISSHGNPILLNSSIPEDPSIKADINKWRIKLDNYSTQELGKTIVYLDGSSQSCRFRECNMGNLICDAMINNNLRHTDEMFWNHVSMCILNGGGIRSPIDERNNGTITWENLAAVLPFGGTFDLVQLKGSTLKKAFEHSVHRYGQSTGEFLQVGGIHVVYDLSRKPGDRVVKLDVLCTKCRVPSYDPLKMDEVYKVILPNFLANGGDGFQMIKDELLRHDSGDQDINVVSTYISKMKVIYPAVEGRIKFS
Description: Human breast cancer cells MDA-MB-231 that endogenously express CD73 were used in the present invention to evaluate the inhibition of the compound against the CD73 enzymatic activity expressed on the cell surface. The cells used were from the Cell Bank of the Chinese Academy of Sciences. The specific experimental procedures were as follows:
1. Before the test, MDA-MB231 cells were seeded to a 96-well plate at 20000 cells/well;
2. In RPMI1640, 10% fetal bovine serum (Gibco, 10099-141), placed in a 5% CO2 incubator at 37° C. overnight (the cells were washed three times by using a serum-free RPMI medium right before the test):
3. 50 μl of serum-free media containing the compounds at different concentrations were added to the cells and incubated for 15 minutes;
4. 25 μL of 1.2 mM AMP was added for incubation at 37° C. for 2 hours, 25 μL of supernatant was then collected from the cells and mix with 25 μL of 100 μM ATP, and then the concentration of AMP in the samples was determined by CTG (Promega, #G7573);
5. Then, a reduction ratio of the substrate AMP level in the cell culture supernatant collected after the reaction was quantitatively determined to evaluate the inhibitory effects of the examples of the present invention and the positive compounds against the CD73 enzymatic activity on the cell surface;
6. Finally, the concentration of the compound leading to half maximal inhibition of enzymatic activity (IC50) was determined using a four-parameter non-linear logistic model curve fit in Graphpad Prism.

Compound | pIC50 (CD73) | pIC50 [1]
C[C@@H](Nc1nc(Cl)nc2c1cnn2[C@@H]1O[C@H](COP(=O)(O)CP(=O)(O)O)[C@@H](O)[C@H]1O)c1ccc(S(F)(F)(F)(F)F)cc1 [Example 1, (((((2R,3S,4R,5R)-5-(6-chloro-4-(((R)-1-(4-(pentafluoro-λ^6-sulfanyl)phenyl)ethyl)amino)-1H-pyrazolo[3,4-d]pyrimidin-1-yl)-3,4-dihydroxytetrahydrofuran-2-yl)methoxy)(hydroxy)phosphoryl)methyl)phosphonic acid] | 8.17 | 9.43
C[C@H](Nc1nc(Cl)nc2c1cnn2[C@@H]1O[C@H](COP(=O)(O)CP(=O)(O)O)[C@@H](O)[C@H]1O)c1ccc(S(F)(F)(F)(F)F)cc1 [Example 2, (((((2R,3S,4R,5R)-5-(6-chloro-4-(((S)-1-(4-(pentafluoro-λ^6-sulfanyl)phenyl)ethyl)amino)-1H-pyrazolo[3,4-d]pyrimidin-1-yl)-3,4-dihydroxytetra-hydrofuran-2-yl)methoxy)(hydroxy)phosphoryl)methyl)phosphonic acid] | 7.69 | 9.14
C[C@@H](Nc1nc(Cl)nc2c1cnn2[C@@H]1O[C@H](COP(=O)(O)CP(=O)(O)O)[C@@H](O)[C@H]1O)c1ccc(S(F)(F)(F)(F)F)cc1F [Example 3, (((((2R,3S,4R,5R)-5-(6-chloro-4-(((R)-1-(2-fluoro-4-(pentafluoro-λ^6-sulfanyl)phenyl)ethyl)amino)-1H-pyrazolo[3,4-d]pyrimidin-1-yl)-3,4-dihydroxytetrahydrofuran-2-yl)methoxy)(hydroxy)phosphoryl)methyl)phosphonic acid] | 8.80 | 9.14
C[C@H](Nc1nc(Cl)nc2c1cnn2[C@@H]1O[C@H](COP(=O)(O)CP(=O)(O)O)[C@@H](O)[C@H]1O)c1ccc(S(F)(F)(F)(F)F)cc1F [Example 4, (((((2R,3S,4R,5R)-5-(6-chloro-4-(((S)-1-(2-fluoro-4-(pentafluoro-λ^6-sulfanyl)phenyl)ethyl)amino)-1H-pyrazolo[3,4-d]pyrimidin-1-yl)-3,4-dihydroxytetrahydrofuran-2-yl)methoxy)(hydroxy)phosphoryl)methyl)phosphonic acid] | 7.63 | 9.05
C[C@H](Nc1cc(Cl)nc2c1cnn2[C@@H]1O[C@H](COP(=O)(O)CP(=O)(O)O)[C@@H](O)[C@H]1O)c1ccc(S(F)(F)(F)(F)F)cc1F [Example 5, (((((2R,3S,4R,5R)-5-(6-chloro-4-(((S)-1-(2-fluoro-4-(pentafluoro-λ^6-sulfanyl)phenyl)ethyl)amino)-1H-pyrazolo[3,4-b]pyridin-1-yl)-3,4-dihydroxytetrahydrofuran-2-yl)methoxy)(hydroxy)phosphoryl)methyl)phosphonic acid] | 7.44 | 9.31
C[C@H](Nc1cc(Cl)nc2c1cnn2[C@@H]1O[C@H](COP(=O)(O)CP(=O)(O)O)[C@@H](O)[C@H]1O)c1ccc(S(F)(F)(F)(F)F)cc1 [Example 6, (((((2R,3S,4R,5R)-5-(6-chloro-4-(((S)-1-(4-(pentafluoro-λ^6-sulfanyl)phenyl)ethyl)amino)-1H-pyrazolo[3,4-b]pyridin-1-yl)-3,4-dihydroxytetrahydrofuran-2-yl)methoxy)(hydroxy)phosphoryl)methyl) phosphonic acid] | 8.62 | 9.52
C[C@@H](Nc1cc(Cl)nc2c1cnn2[C@@H]1O[C@H](COP(=O)(O)CP(=O)(O)O)[C@@H](O)[C@H]1O)c1ccc(S(F)(F)(F)(F)F)cc1 [Example 7, (((((2R,3S,4R,5R)-5-(6-chloro-4-(((R)-1-(4-(pentafluoro-λ^6-sulfanyl)phenyl)ethyl)amino)-1H-pyrazolo[3,4-b]pyridin-1-yl)-3,4-dihydroxytetrahydrofuran-2-yl)methoxy)(hydroxy)phosphoryl)methyl) phosphonic acid] | 7.82 | 8.79
C[C@H](Nc1cc(Cl)nc2c1cnn2[C@@H]1O[C@H](COP(=O)(O)CP(=O)(O)O)[C@@H](O)[C@H]1O)c1cccc(S(F)(F)(F)(F)F)c1 [Example 8, (((((2R,3S,4R,5R)-5-(6-chloro-4-(((S)-1-(3-(pentafluoro-λ^6-sulfanyl)phenyl)ethyl)amino)-1H-pyrazolo[3,4-b]pyridin-1-yl)-3,4-dihydroxytetrahydrofuran-2-yl)methoxy)(hydroxy)phosphoryl)methyl) phosphonic acid] | 8.70 | 9.23
C[C@@H](Nc1cc(Cl)nc2c1cnn2[C@@H]1O[C@H](COP(=O)(O)CP(=O)(O)O)[C@@H](O)[C@H]1O)c1cccc(S(F)(F)(F)(F)F)c1 [Example 9, (((((2R,3S,4R,5R)-5-(6-chloro-4-(((R)-1-(3-(pentafluoro-λ^6-sulfanyl)phenyl)ethyl)amino)-1H-pyrazolo[3,4-b]pyridin-1-yl)-3,4-dihydroxytetrahydrofuran-2-yl)methoxy)(hydroxy)phosphoryl)methyl) phosphonic acid] | 8.32 | 8.84
O=P(O)(O)CP(=O)(O)OC[C@H]1O[C@@H](n2ncc3c(NCc4ccccc4S(F)(F)(F)(F)F)cc(Cl)nc32)[C@H](O)[C@@H]1O [Example 10, (((((2R,3S,4R,5R)-5-(6-chloro-4-((2-(pentafluoro-λ^6-sulfanyl)phenylmethyl)amino)-1H-pyrazolo[3,4-b]pyridin-1-yl)-3,4-dihydroxytetrahydrofuran-2-yl)methoxy)(hydroxy)phosphoryl)methyl) phosphonic acid] | 8.51 | 9.68
C[C@@H](Nc1cc(Cl)nc2c1cnn2[C@@H]1O[C@H](COP(=O)(O)CP(=O)(O)O)[C@@H](O)[C@H]1O)c1ccc(S(F)(F)(F)(F)F)cc1F [Example 11, (((((2R,3S,4R,5R)-5-(6-chloro-4-(((R)-1-(2-fluoro-4-(pentafluoro-λ^6-sulfanyl)phenyl)ethyl)amino)-1H-pyrazolo[3,4-b]pyridin-1-yl)-3,4-dihydroxytetrahydrofuran-2-yl)methoxy)(hydroxy)phosphoryl)methyl) phosphonic acid] | 7.50 | 9.00
O=P(O)(O)CP(=O)(O)OC[C@H]1C[C@@H](c2ccc3c(N[C@H]4CCc5ccccc54)nc(Cl)nn23)[C@H](O)[C@@H]1O [Example 26, (((((1R,2R,3S,4S)-4-(2-chloro-4-(((S)-2,3-dihydro-1H-inden-1-yl)amino)pyrrolo[2,1-f][1,2,4]triazin-7-yl)-2,3-dihydroxy-cyclopentyl)methoxy)(hydroxy)phosphoryl)methyl)phosphonic acid] |  | 8.50
